Values after ≈ are worked out from the molar mass of the structure shown. “Also recorded” adds a separate entry of the source.
Columns and labels:
[1] = test system: K. pneumoniae (13883); test: MIC, micro-broth dilution; assay type: cell-based; details: Klebsiella pneumoniae, 24 h, read-out: ANTIMICROBIAL ACTIVITY (MIC)
Method: (§1) The antimicrobial activity of the compounds according to the present invention were compared with the results obtained for squalamine as reported in Proc. Nat. Acad. Sci. USA 90:1354 (1993), supra, the disclosure of which is incorporated in toto herein. The data reported in the following table is the minimum inhibitory concentration (MIC) required for complete inhibition of microbial growth. The MIC was determined utilizing known micro-broth dilution methods in which inocula of 10^6 /ml of the test organism were incubated in 0.5× trypticase soy broth at 35° C. for 24 hours. MIC's were also tested under various pH conditions, with calcium chloride or magnesium chloride, or with immobilized horse serum.
(§2) The numbers in parentheses contained in the table correspond to accession numbers with the American Type Culture Collection (reference strains were either obtained from the American Type Culture Collection or from the Microbiology Laboratory at Memorial Sloan-Kettering Cancer Center; Bacterial strains were maintained on Columbia 5% sheep blood agar plates, and fungi were maintained on Sabouraud Dextrose agar plates).

[2] = test system: E. cloacae (13047); test: MIC, micro-broth dilution; assay type: cell-based; details: Enterobacter cloacae, 35° C., 24 hours, read-out: ANTIMICROBIAL ACTIVITY (MIC)
Method: as §1, §2

[3] = test system: S. epidermidis (12228); test: MIC, micro-broth dilution; assay type: cell-based; details: Staphylococcus epidermidis, 35° C., 24 hours, read-out: ANTIMICROBIAL ACTIVITY (MIC)
Method: as §1, §2

[4] = test system: A. fumigatus (H1120); test: MIC, micro-broth dilution; assay type: cell-based; details: Aspergillus fumigatus, 35° C., 24 hours, read-out: ANTIMICROBIAL ACTIVITY (MIC)
Method: as §1, §2

[5] = test system: C. neoformans (90012); test: MIC, micro-broth dilution; assay type: cell-based; details: Cryptococcus neoformans, 24 h, read-out: ANTIMICROBIAL ACTIVITY (MIC)
Method: as §1, §2

[6] = test system: S. agalactiae (13813); test: MIC, micro-broth dilution; assay type: cell-based; details: Streptococcus agalactiae, 35° C., 24 hours, read-out: ANTIMICROBIAL ACTIVITY (MIC)
Method: as §1, §2

[7] = test system: S. pneumoniae (6305); test: MIC, micro-broth dilution; assay type: cell-based; details: Streptococcus pneumoniae, 35° C., 24 hours, read-out: ANTIMICROBIAL ACTIVITY (MIC)
Method: as §1, §2

[8] = test system: P. aeruginosa (10145); test: MIC, micro-broth dilution; assay type: cell-based; details: Pseudomonas aeruginosa, 35° C., 24 hours, read-out: ANTIMICROBIAL ACTIVITY (MIC)
Method: as §1, §2

[9] = test system: E. coli (25922); test: MIC, micro-broth dilution; assay type: cell-based; details: Escherichia coli, 35° C., 24 hours, read-out: ANTIMICROBIAL ACTIVITY (MIC)
Method: as §1, §2

[10] = test system: C. albicans (90028); test: MIC, micro-broth dilution; assay type: cell-based; details: Candida albicans, 35° C., 24 hours, read-out: ANTIMICROBIAL ACTIVITY (MIC)
Method: as §1, §2

[11] = test system: E. faecium (T6480-9); test: MIC, micro-broth dilution; assay type: cell-based; details: Enterococcus faecium, 35° C., 24 hours, read-out: ANTIMICROBIAL ACTIVITY (MIC)
Method: as §1, §2

[12] = test system: S. pyrogenes (19615); test: MIC, micro-broth dilution; assay type: cell-based; details: 24 h, read-out: ANTIMICROBIAL ACTIVITY (MIC)
Method: as §1, §2

[13] = test system: S. aureus (29213); test: MIC, micro-broth dilution; assay type: cell-based; details: Staphylococcus aureus, 24 h, read-out: ANTIMICROBIAL ACTIVITY (MIC)
Method: as §1, §2

[14] = test system: C. neoformans (M68979); test: MIC, micro-broth dilution; assay type: cell-based; details: Cryptococcus neoformans, 24 h, read-out: ANTIMICROBIAL ACTIVITY (MIC)
Method: as §1, §2

[15] = test system: A. fumigatus (H29709); test: MIC, micro-broth dilution; assay type: cell-based; details: Aspergillus fumigatus, 35° C., 24 hours, read-out: ANTIMICROBIAL ACTIVITY (MIC)
Method: as §1, §2

[16] = test system: S. aureus (H20809); test: MIC, micro-broth dilution; assay type: cell-based; details: Staphylococcus aureus, 24 h, read-out: ANTIMICROBIAL ACTIVITY (MIC)
Method: as §1, §2

[17] = test system: P. vulgaris (13315); test: MIC, micro-broth dilution; assay type: cell-based; details: Proteus vulgaris, 35° C., 24 hours, read-out: ANTIMICROBIAL ACTIVITY (MIC)
Method: as §1, §2

[18] = test system: S. aureus (25923); test: MIC, micro-broth dilution; assay type: cell-based; details: Staphylococcus aureus, 35° C., 24 hours, read-out: ANTIMICROBIAL ACTIVITY (MIC)
Method: as §1, §2

[19] = test system: S. marcescens (13880); test: MIC, micro-broth dilution; assay type: cell-based; details: for MIC: Serratia marcescens, 24 h, read-out: ANTIMICROBIAL ACTIVITY (MIC)
Method: as §1, §2

[20] = test system: E. faecalis (29212); test: MIC, micro-broth dilution; assay type: cell-based; details: Enterococcus faecalis, 35° C., 24 hours, read-out: ANTIMICROBIAL ACTIVITY (MIC)
Method: as §1, §2

[21] = test system: P. aeruginosa (2853); test: MIC, micro-broth dilution; assay type: cell-based; details: Pseudomonas aeruginosa, 24 h, read-out: ANTIMICROBIAL ACTIVITY (MIC)
Method: as §1, §2

[22] = Hemolytic activity, minimal hemolytic concentration (MHC); assay type: cell-based, sheep; details: sheep, red blood cells;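 also: MCC here is the minimal hemolytic concentration (MHC)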
Method: Hemolytic activity of the squalamine mimics according to the present invention were also studied by incubating sheep red blood cells for 24 hours at 37° C. in saline (final concentration of 0.5%) with or without respective concentrations of the squalamine mimics. The minimal hemolytic concentration (MHC) was determined as the lowest concentration of a mimic that raised visible hemolysis.

Row | Compound | MIC [1] | MIC [2] | MIC [3] | MIC [4] | MIC [5] | MIC [6] | MIC [7] | MIC [8] | MIC [9] | MIC [10] | MIC [11] | MIC [12] | MIC [13] | MIC [14] | MIC [15] | MIC [16] | MIC [17] | MIC [18] | MIC [19] | MIC [20] | other results
1 | C[C@H](CCC(=O)NCCCCN)[C@H]1CC[C@H]2[C@@H]3CC[C@@H]4C[C@H](O)CC[C@]4(C)[C@H]3C[C@H](O)[C@]12C [SM-9] | 50 µg/mL (≈ 108 µM) | 50 µg/mL (≈ 108 µM) | 25 µg/mL (≈ 54 µM) | 50 µg/mL (≈ 108 µM) | 25 µg/mL (≈ 54 µM) | 12.5 µg/mL (≈ 27 µM) | 25 µg/mL (≈ 54 µM) | 100 µg/mL (≈ 216 µM) | 50 µg/mL (≈ 108 µM) | 25 µg/mL (≈ 54 µM) | 50 µg/mL (≈ 108 µM) | 6.25 µg/mL (≈ 13.5 µM) | 25 µg/mL (≈ 54 µM) | 25 µg/mL (≈ 54 µM) | 50 µg/mL (≈ 108 µM) | 25 µg/mL (≈ 54 µM) | 50 µg/mL (≈ 108 µM) | 25 µg/mL (≈ 54 µM) | > 100 µg/mL | 25 µg/mL (≈ 54 µM) | MIC [21]: 100 µg/mL (≈ 216 µM); MCC at 24 h [22]: 50 µg/mL
2 | C[C@H](CCC(=O)NCCNCCNCCN)[C@H]1CC[C@H]2[C@@H]3CC[C@@H]4C[C@H](O)CC[C@]4(C)[C@H]3C[C@H](O)[C@]12C [SM-11] | 12.5 µg/mL (≈ 24 µM) | 12.5 µg/mL (≈ 24 µM) | 6.25 µg/mL (≈ 12 µM) | 12.5 µg/mL (≈ 24 µM) | 6.25 µg/mL (≈ 12 µM) | 6.25 µg/mL (≈ 12 µM) | 12.5 µg/mL (≈ 24 µM) | 6.25 µg/mL (≈ 12 µM) | 12.5 µg/mL (≈ 24 µM) | 12.5 µg/mL (≈ 24 µM) | 12.5 µg/mL (≈ 24 µM) | 6.25 µg/mL (≈ 12 µM) | 12.5 µg/mL (≈ 24 µM) | 6.25 µg/mL (≈ 12 µM) | 12.5 µg/mL (≈ 24 µM) | 12.5 µg/mL (≈ 24 µM) | 25 µg/mL (≈ 48 µM) | 6.25 µg/mL (≈ 12 µM) | 50 µg/mL (≈ 96 µM) | 12.5 µg/mL (≈ 24 µM) | activity against S. marcescens ([19]; in words): found even against S. marcescens; also recorded: effective against S. marcescens; MIC [21]: 6.25 µg/mL (≈ 12 µM); MCC at 24 h [22]: 25 µg/mL
3 | C[C@H](CCC(=O)NCCNCCNCCN)[C@H]1CC[C@H]2[C@@H]3[C@H](O)C[C@@H]4C[C@H](O)CC[C@]4(C)[C@H]3C[C@H](O)[C@]12C [SM-17] | 50 µg/mL (≈ 93.1 µM) | 50 µg/mL (≈ 93.1 µM) | 25 µg/mL (≈ 46.6 µM) | 25 µg/mL (≈ 46.6 µM) | 12.5 µg/mL (≈ 23.3 µM) | 12.5 µg/mL (≈ 23.3 µM) | 25 µg/mL (≈ 46.6 µM) | 100 µg/mL (≈ 186 µM) | 50 µg/mL (≈ 93.1 µM) | 25 µg/mL (≈ 46.6 µM) | 50 µg/mL (≈ 93.1 µM) | 12.5 µg/mL (≈ 23.3 µM) | 25 µg/mL (≈ 46.6 µM) | 12.5 µg/mL (≈ 23.3 µM) | 25 µg/mL (≈ 46.6 µM) | 50 µg/mL (≈ 93.1 µM) | 50 µg/mL (≈ 93.1 µM) | 25 µg/mL (≈ 46.6 µM) | > 100 µg/mL | 50 µg/mL (≈ 93.1 µM) | MIC [21]: 50 µg/mL (≈ 93.1 µM); MCC at 24 h [22]: > 100 µg/mL
4 | C[C@H](CCC(=O)NCCNCCNCCN)[C@H]1CC[C@H]2[C@@H]3CC[C@@H]4CCCC[C@]4(C)[C@H]3CC[C@]12C [SM-21] | > 100 µg/mL | > 100 µg/mL | 1.56 µg/mL (≈ 3.19 µM) | 6.25 µg/mL (≈ 12.8 µM) | 1.56 µg/mL (≈ 3.19 µM) | 1.56 µg/mL (≈ 3.19 µM) | 1.56 µg/mL (≈ 3.19 µM) | 25 µg/mL (≈ 51.1 µM) | 50 µg/mL (≈ 102 µM) | 6.25 µg/mL (≈ 12.8 µM) | 1.56 µg/mL (≈ 3.19 µM) | 3.13 µg/mL (≈ 6.4 µM) | 3.13 µg/mL (≈ 6.4 µM) | 1.56 µg/mL (≈ 3.19 µM) | 3.13 µg/mL (≈ 6.4 µM) | 3.13 µg/mL (≈ 6.4 µM) | 50 µg/mL (≈ 102 µM) | 3.13 µg/mL (≈ 6.4 µM) | > 100 µg/mL | 3.13 µg/mL (≈ 6.4 µM) | MIC [21]: 25 µg/mL (≈ 51.1 µM); MCC at 24 h [22]: 3.13 µg/mL
5 | C[C@H](CCC(=O)NCCCNCCCCNCCCN)[C@H]1CC[C@H]2[C@@H]3CC[C@@H]4C[C@H](OS(=O)(=O)O)CC[C@]4(C)[C@H]3CC[C@]12C [SM-22] | > 100 µg/mL | > 100 µg/mL | 1.56 µg/mL (≈ 2.43 µM) | > 100 µg/mL | 25 µg/mL (≈ 39 µM) | > 100 µg/mL | 25 µg/mL (≈ 39 µM) | > 100 µg/mL | > 100 µg/mL | > 100 µg/mL | > 100 µg/mL | 1.56 µg/mL (≈ 2.43 µM) | 1.56 µg/mL (≈ 2.43 µM) | 25 µg/mL (≈ 39 µM) | > 100 µg/mL | 3.13 µg/mL (≈ 4.88 µM) | > 100 µg/mL | 1.56 µg/mL (≈ 2.43 µM) | > 100 µg/mL | > 100 µg/mL | MIC [21]: > 100 µg/mL; MCC at 24 h [22]: > 100 µg/mL
